Data on 20 compounds can be found in ChEMBL document CHEMBL6114964, “Discovery of novel spirocyclic derivates as potent androgen receptor antagonists” (Bioorg Med Chem, 2025).

As a reminder, the IC50 is the midpoint of a concentration-inhibition curve. Broadly, the half-life is the time needed for the level to fall by half in the phase considered. In general, share remaining refers to the share of the starting amount still present when the sample was taken. What is called microsomal CLint is the rate of metabolic loss divided by the concentration. A higher microsomal CLint goes with rapid turnover.

One series is described as follows: cells. It counts as functional, cell-based. The settings on record: Homo sapiens, LNCaP-EnzR, 168 h.
In a further series the test system is CWR22R. In words: cells. The format is functional, cell-based. To be noted: Homo sapiens, 22Rv1, 168 h.
The next series relates to LNCaP. As to the kind of experiment: cells. The format is functional, cell-based. The settings on record: Homo sapiens, 168 h.
The target of series [1] is T1, Androgen receptor (Homo sapiens, UniProt P10275).
T1 sequence (P10275 whole entry): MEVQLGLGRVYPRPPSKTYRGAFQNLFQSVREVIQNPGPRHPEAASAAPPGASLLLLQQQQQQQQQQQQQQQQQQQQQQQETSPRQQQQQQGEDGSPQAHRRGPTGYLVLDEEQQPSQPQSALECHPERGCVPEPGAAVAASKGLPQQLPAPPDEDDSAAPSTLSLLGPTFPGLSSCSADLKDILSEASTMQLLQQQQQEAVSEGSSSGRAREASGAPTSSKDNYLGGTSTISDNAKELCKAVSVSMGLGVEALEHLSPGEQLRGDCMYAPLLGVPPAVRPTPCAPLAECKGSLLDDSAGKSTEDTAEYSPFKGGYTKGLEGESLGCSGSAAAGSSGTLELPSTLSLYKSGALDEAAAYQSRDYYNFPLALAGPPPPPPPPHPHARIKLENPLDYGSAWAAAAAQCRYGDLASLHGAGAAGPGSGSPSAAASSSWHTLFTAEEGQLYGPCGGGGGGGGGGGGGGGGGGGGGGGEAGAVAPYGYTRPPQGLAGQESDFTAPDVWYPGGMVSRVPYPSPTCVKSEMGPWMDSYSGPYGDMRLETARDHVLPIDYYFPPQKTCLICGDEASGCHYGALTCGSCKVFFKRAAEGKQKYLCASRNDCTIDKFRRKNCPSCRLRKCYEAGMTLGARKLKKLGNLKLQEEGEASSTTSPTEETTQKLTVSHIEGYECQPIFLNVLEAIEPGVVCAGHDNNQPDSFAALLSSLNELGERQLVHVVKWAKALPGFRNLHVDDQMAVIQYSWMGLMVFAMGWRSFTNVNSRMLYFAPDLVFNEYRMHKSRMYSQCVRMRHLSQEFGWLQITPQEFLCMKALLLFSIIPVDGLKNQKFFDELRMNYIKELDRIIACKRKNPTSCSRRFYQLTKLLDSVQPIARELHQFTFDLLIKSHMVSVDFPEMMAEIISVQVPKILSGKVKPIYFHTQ
It counts as cell-based, HEK293.

Series [2] can be described thus: in vitro. The settings on record: human, microsomes.
Series [3] is described as follows: in vitro. The settings on record: human, microsomes. This is another data set of the same source.
Description: Metabolic stability in human liver microsomes assessed as parent compound remaining at 1 uM measured after 60 mins in presence of NADPH by LC-MS/MS analysis
A short description of series [4]: in vitro. To be noted: mouse, microsomes.
Description: Metabolic stability in mouse liver microsomes assessed as parent compound remaining at 1 uM measured after 60 mins in presence of NADPH by LC-MS/MS analysis
In series [5] the target is Androgen receptor (Homo sapiens, UniProt P10275, F877L). It counts as cell-based, HEK293.
Series [6] can be described thus: in vitro. To be noted: human, microsomes. This is another data set of the same source.
In series [7] the target is Androgen receptor (Homo sapiens, UniProt P10275, W742L). It counts as cell-based, HEK293.
The conditions of series [8]: mouse, microsomes, 1 h, 1 µM.

Structures are written as SMILES.

Description for CWR22R: Antiproliferative activity against human 22Rv1 cells assessed as inhibition of cell viability incubated for 7 days by Celltiter-Glo assay
Description for LNCaP: Antiproliferative activity against human LNCaP cells incubated for 7 days in presence of R1881 by Celltiter-Glo assay

On to `C[C@](O)(Cn1ccc2cc(F)ccc21)C(=O)Nc1ccc(C#N)c(C(F)(F)F)c1`, for which the IC50 amounted to 10900 nM in “cells” and 9980 nM in the series on CWR22R.
Turning to `N#Cc1ccc(N2CCC3(CC(NC(=O)c4ccc(C(=O)O)cc4)C3)C2)cc1C(F)(F)F` (centres undefined), in the series on LNCaP, the half-maximal inhibitory concentration (IC50) was more than 50000 nM.
On the same count and under the same terms, the value for `CC(O)c1cc(C(=O)NC2CC3(CCN(c4ccc(C#N)c(C(F)(F)F)c4)C3)C2)n[nH]1` (centres undefined) was more than 100000 nM; that for `N#Cc1ccc(N2CCC3(CC(NC(=O)c4ccc([N+](=O)[O-])cc4)C3)C2)cc1C(F)(F)F` (centres undefined) was 3280 nM.
On Androgen receptor [1], `N#Cc1ccc(N2CCC3(CC(NC(=O)c4ccccc4)C3)C2)cc1C(F)(F)F` (centres undefined) returned a half-inhibitory concentration (IC50) of 43.7 nM.
Take `CNC(=O)c1ccc(C(=O)NC2CC3(CCN(c4ccc(C#N)c(C(F)(F)F)c4)C3)C2)cc1F` (centres undefined): the half-inhibitory concentration (IC50) in the series on LNCaP worked out at 2260 nM; at Androgen receptor [1] it was 26.3 nM.
Consider `N#Cc1ccc(NC(=O)C2CC3(CCN(c4ccc(C#N)c(C(F)(F)F)c4)C3)C2)cc1` (centres undefined), for which, in the series with LNCaP, the IC50 was 4370 nM.
For `N#Cc1ccc(N2CCC3(CC(NC(=O)c4ccc(CO)cc4)C3)C2)cc1C(F)(F)F` (centres undefined), the half-inhibitory concentration (IC50) is 1990 nM with LNCaP and 37.8 nM on Androgen receptor [1].
The compound `N#Cc1ccc(-c2ccc(C(=O)NC3CC4(CCN(c5ccc(C#N)c(C(F)(F)F)c5)C4)C3)cc2)cc1F` (centres undefined) had a half-life at 1 h, 1 µM in “in vitro [2]” of 2.57 h. Also, the concentration for half-maximal inhibition (IC50) in “cells” is 1190 nM; in the series on LNCaP it was 190 nM; against Androgen receptor [5], more than 10000 nM; at Androgen receptor [7], 116 nM; in the series with CWR22R it was more than 50000 nM. For the same compound, the fraction remaining at 1 h, 1 µM in “in vitro [3]” was 76.8%; in “in vitro [4]”, 100%. The intrinsic clearance (microsomal CLint) at 1 h, 1 µM in the series “in vitro [6]” came to 9 µL/min/mg.
`Cc1ccc(C(=O)NC2CC3(CCN(c4ccc(C#N)c(C(F)(F)F)c4)C3)C2)cn1` (centres undefined): the half-inhibitory concentration (IC50) with LNCaP stood at 2570 nM; at Androgen receptor [1], 33.2 nM.
Regarding `Cc1ccc(C(=O)NC2CC3(CCN(c4ccc(C#N)c(C(F)(F)F)c4)C3)C2)cc1` (centres undefined), in the series on LNCaP, the IC50 worked out at 1260 nM.
Regarding `N#Cc1ccc(CN2CC3(CCN(c4ccc(C#N)c(C(F)(F)F)c4)C3)C2)cc1`, at Androgen receptor [1], the IC50 was 313 nM.
As to `N#Cc1ccc(-c2ccc(C(=O)NC3CC4(CCN(c5ccc(C#N)c(C(F)(F)F)c5)C4)C3)cc2)cc1` (centres undefined), the half-maximal inhibitory concentration (IC50) in “cells” is 1140 nM; in the series with LNCaP, 80 nM; on Androgen receptor [1], 29.8 nM; against Androgen receptor [7] it was 160 nM; in the series with CWR22R it was more than 50000 nM.
In the case of `COc1ccc(C(=O)NC2CC3(CCN(c4ccc(C#N)c(C(F)(F)F)c4)C3)C2)cc1` (centres undefined), the 50% inhibitory concentration (IC50) with LNCaP stood at 920 nM; at Androgen receptor [1] it was 25.1 nM.
For the compound `CN1CCN(c2ccc(C(=O)NC3CC4(CCN(c5ccc(C#N)c(C(F)(F)F)c5)C4)C3)cc2)CC1` (centres undefined), the values for the IC50 in the series with LNCaP and on Androgen receptor [1] were 3570 nM and 24.6 nM, respectively.
As to `COC(=O)c1ccc(C(=O)NC2CC3(CCN(c4ccc(C#N)c(C(F)(F)F)c4)C3)C2)cc1` (centres undefined), in the series on LNCaP, the midpoint of inhibition, the IC50, lay at 6460 nM.
Regarding `C[C@](O)(CN1CCN(c2ccc(-c3ccc(C#N)c(F)c3)cc2)CC1)C(=O)Nc1ccc(C#N)c(C(F)(F)F)c1`, the half-life at 1 h, 1 µM in the series “in vitro [2]” was found to be 0.0825 h. Further, the concentration for half-maximal inhibition (IC50) in “cells” worked out at 3290 nM; in the series on CWR22R, 2340 nM. Also, the share remaining at 1 h, 1 µM in the series “in vitro [3]” stood at 0.74%; in the series “in vitro [4]” it was 12.2%. Moreover, in the series “in vitro [6]”, the intrinsic clearance (microsomal CLint) at 1 h, 1 µM came out at 252 µL/min/mg. In [8], this compound returned a CLH of 282 µL/min.
With `N#Cc1ccc(N2CCC3(CC(NC(=O)c4ccc(-c5ccc(OCCO)cc5)cc4)C3)C2)cc1C(F)(F)F` (centres undefined), half-maximal inhibition in the series with LNCaP (IC50) required 650 nM.
The same measure, in the same setting: the value for `N#Cc1ccc(N2CCC3(CC(NC(=O)c4ccc(F)cc4)C3)C2)cc1C(F)(F)F` (centres undefined) was 2230 nM.
In the series “cells”, `CC(O)c1cc(C(=O)N[C@@H](C)Cn2ccc(-c3ccc(C#N)c(Cl)c3)n2)n[nH]1` (some centres undefined) [DAROLUTAMIDE] returned a concentration for half-maximal inhibition (IC50) of 31200 nM.
